Calls of active or inactive are those of the source.
Legend:
[1] = target: T1, E3 ubiquitin-protein ligase XIAP (Homo sapiens, UniProt P98170); experiment: XIAP antagonists, biochemical, IAP family, fluorescence polarization (AID 1018); format: functional
[2] = target: T1, E3 ubiquitin-protein ligase XIAP; experiment: Counter Screen using XIAP-Bir3 for Chemical Antagonists of Bir1/2 domains of IAP-family anti-apoptotic proteins. [Related pubchem assays (depositor defined):AID1018, AID1449, AID1514, AID1638, AID1749, AID1750, AID488957, AID488963]
[3] = mammalian cell cytotoxicity, dose response, cytotoxicity control, plate reader, cherry-pick samples (AID 504397); format: functional, cell-based
CAAX prenyl protease 2 = target: T2, CAAX prenyl protease 2 (Saccharomyces cerevisiae S288c, UniProt Q03530); format: biochemical
T2 sequence (Q03530 whole entry): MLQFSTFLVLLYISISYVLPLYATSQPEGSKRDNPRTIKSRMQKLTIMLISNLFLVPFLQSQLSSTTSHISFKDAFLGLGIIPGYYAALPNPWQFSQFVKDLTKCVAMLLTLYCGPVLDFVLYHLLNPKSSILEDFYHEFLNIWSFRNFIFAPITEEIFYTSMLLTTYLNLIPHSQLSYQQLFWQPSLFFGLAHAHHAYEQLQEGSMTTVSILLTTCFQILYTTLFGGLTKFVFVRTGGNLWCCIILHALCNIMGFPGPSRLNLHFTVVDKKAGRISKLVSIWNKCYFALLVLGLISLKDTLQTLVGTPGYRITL

Troponin, cardiac muscle = Troponin, cardiac muscle (Homo sapiens, UniProt P19429+P45379+P63316); experiment: Fluorescence-based biochemical high throughput dose response assay for activators of the calcium sensitivity of cardiac Regulated Thin Filaments (RTF). [Related pubchem assays (depositor defined):AID493008, AID493018, AID504382, AID504383]; format: protein-complex assay
[4] = target: T3, G-protein coupled receptor 35 (Homo sapiens, UniProt Q9HC97); experiment: SAR analysis of Antagonists of the GPR35 Receptor using an Image-Based Assay - Set 6. [Related pubchem assays (depositor defined):AID2013, AID2026]; format: functional
T3 sequence (Q9HC97 whole entry): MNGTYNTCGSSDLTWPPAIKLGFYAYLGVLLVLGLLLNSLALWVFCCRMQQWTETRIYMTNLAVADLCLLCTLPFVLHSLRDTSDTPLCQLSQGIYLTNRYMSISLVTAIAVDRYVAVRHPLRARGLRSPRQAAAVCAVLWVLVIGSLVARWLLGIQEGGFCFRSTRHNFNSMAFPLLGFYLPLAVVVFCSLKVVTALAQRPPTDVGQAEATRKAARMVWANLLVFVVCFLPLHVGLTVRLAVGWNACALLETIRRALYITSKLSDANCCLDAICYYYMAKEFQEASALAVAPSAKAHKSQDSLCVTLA

Cannabinoid receptor 1 [5] = target: T4, Cannabinoid receptor 1 (Homo sapiens, UniProt P21554); experiment: SAR analysis of antagonists of the Cannabinoid Receptor 1 using an Image-Based Assay - Set 4. [Related pubchem assays (depositor defined):AID2013, AID2026]; format: functional
T4 sequence (P21554 whole entry): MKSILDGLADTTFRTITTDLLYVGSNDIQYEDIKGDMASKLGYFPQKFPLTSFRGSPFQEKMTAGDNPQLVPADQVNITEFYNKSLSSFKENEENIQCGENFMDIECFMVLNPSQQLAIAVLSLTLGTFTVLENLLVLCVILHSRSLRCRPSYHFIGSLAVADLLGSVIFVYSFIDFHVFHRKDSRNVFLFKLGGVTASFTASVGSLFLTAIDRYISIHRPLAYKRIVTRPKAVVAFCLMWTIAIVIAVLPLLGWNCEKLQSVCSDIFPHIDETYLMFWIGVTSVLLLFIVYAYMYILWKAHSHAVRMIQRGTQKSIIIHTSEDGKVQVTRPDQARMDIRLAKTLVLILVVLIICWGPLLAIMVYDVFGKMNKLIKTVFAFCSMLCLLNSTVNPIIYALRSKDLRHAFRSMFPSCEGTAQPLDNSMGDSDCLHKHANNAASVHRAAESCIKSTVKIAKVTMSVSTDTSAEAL

Cannabinoid receptor 1 [6] = target: T4, Cannabinoid receptor 1; experiment: SAR analysis of agonists of the Cannabinoid Receptor 1 using an Image-Based Assay - Set 4. [Related pubchem assays (depositor defined):AID2013, AID2026]; format: functional
Cannabinoid receptor 2 [7] = target: T5, Cannabinoid receptor 2 (Homo sapiens, UniProt P34972); experiment: SAR analysis of agonists of the Cannabinoid Receptor 2 using an Image-Based Assay - Set 3. [Related pubchem assays (depositor defined):AID2013, AID2026]; format: functional
T5 sequence (P34972 whole entry): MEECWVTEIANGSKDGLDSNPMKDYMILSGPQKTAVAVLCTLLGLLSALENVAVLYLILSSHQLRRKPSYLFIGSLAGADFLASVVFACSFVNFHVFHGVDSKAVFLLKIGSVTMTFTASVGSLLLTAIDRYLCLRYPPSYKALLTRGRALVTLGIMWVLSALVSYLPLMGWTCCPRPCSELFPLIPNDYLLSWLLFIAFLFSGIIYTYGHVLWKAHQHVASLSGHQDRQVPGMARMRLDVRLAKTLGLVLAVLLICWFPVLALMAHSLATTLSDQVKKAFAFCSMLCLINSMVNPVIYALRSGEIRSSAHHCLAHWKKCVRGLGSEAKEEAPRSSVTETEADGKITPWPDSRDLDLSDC

[8] = target: T6, G-protein coupled receptor 55 (Homo sapiens, UniProt Q9Y2T6); experiment: SAR Analysis of Selective Antagonists of GPR55 using an Image-Based Assay - Set 4. [Related pubchem assays (depositor defined):AID2013, AID2026]; format: functional
T6 sequence (Q9Y2T6 whole entry): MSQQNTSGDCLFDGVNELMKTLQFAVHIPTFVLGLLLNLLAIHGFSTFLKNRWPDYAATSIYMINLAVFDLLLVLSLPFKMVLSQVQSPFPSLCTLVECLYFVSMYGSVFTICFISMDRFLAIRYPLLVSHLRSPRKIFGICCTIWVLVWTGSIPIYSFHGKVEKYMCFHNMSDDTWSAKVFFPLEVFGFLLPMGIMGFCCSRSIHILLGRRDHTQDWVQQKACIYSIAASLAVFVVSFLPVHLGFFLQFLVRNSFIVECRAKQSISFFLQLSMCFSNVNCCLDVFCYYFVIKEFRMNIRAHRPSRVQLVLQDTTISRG

Cannabinoid receptor 2 [9] = target: T5, Cannabinoid receptor 2; experiment: SAR analysis of antagonists of the Cannabinoid Receptor 2 using an Image-Based Assay - Set 3. [Related pubchem assays (depositor defined):AID2013, AID2026]; format: functional
[10] = target: T3, G-protein coupled receptor 35; experiment: SAR analysis of Agonists of the GPR35 Receptor using an Image-Based Assay - Set 4. [Related pubchem assays (depositor defined):AID2013, AID2026]; format: functional
Cannabinoid receptor 2 [11] = target: T5, Cannabinoid receptor 2; experiment: SAR analysis of agonists of the Cannabinoid Receptor 2 using an Image-Based Assay - Set 2. [Related pubchem assays (depositor defined):AID1961, AID1965]; format: functional
Cannabinoid receptor 2 [12] = target: T5, Cannabinoid receptor 2; experiment: SAR analysis of antagonists of the Cannabinoid Receptor 2 using an Image-Based Assay - Set 2. [Related pubchem assays (depositor defined):AID1961, AID1965]; format: functional
[13] = target: T3, G-protein coupled receptor 35; experiment: SAR analysis of Agonists of the GPR35 Receptor using an Image-Based Assay - Set 3. [Related pubchem assays (depositor defined):AID1961, AID1965]; format: functional
Cannabinoid receptor 1 [14] = target: T4, Cannabinoid receptor 1; experiment: SAR analysis of agonists of the Cannabinoid Receptor 1 using an Image-Based Assay - Set 3. [Related pubchem assays (depositor defined):AID1961, AID1965]; format: functional
[15] = target: T3, G-protein coupled receptor 35; experiment: SAR analysis of Antagonists of the GPR35 Receptor using an Image-Based Assay - Set 4. [Related pubchem assays (depositor defined):[…]]; format: functional
Cannabinoid receptor 1 [16] = target: T4, Cannabinoid receptor 1; experiment: SAR analysis of antagonists of the Cannabinoid Receptor 1 using an Image-Based Assay - Set 3. [Related pubchem assays (depositor defined):AID1961, AID1965]; format: functional
[17] = target: T6, G-protein coupled receptor 55; experiment: SAR analysis of selective Agonists of GPR55 using an Image-Based Assay - Set 2. [Related pubchem assays (depositor defined):AID1961, AID1965]; format: functional
CHO-K1 = experiment: Counterscreen for antagonists of the orexin 1 receptor (OX1R; HCRTR1): Homogeneous time resolved fluorescence (HTRF)-based cell-based dose response assay to identify antagonists of the parental CHO-K1 cell line. [Related pubchem assays (depositor defined):AID434989, AID435008, AID463079, AID485270, AID492963, AID492964, AID492965, AID493232, AID504699, AID504701]; format: functional; conditions: Cricetulus griseus;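 note: potency for inhibition of ATP-stimulated IP1 production as antagonists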
[18] = target: T7, Orexin/Hypocretin receptor type 1 (Homo sapiens, UniProt O43613); experiment: Fluorescence-based cell-based high throughput dose response assay for antagonists of the orexin 1 receptor (OX1R; HCRTR1). [Related pubchem assays (depositor defined):AID434989, AID435008, AID463079, AID485270, AID492963, AID492964, AID492965, AID493232, AID504717, AID504718]; format: functional
T7 sequence (O43613 whole entry): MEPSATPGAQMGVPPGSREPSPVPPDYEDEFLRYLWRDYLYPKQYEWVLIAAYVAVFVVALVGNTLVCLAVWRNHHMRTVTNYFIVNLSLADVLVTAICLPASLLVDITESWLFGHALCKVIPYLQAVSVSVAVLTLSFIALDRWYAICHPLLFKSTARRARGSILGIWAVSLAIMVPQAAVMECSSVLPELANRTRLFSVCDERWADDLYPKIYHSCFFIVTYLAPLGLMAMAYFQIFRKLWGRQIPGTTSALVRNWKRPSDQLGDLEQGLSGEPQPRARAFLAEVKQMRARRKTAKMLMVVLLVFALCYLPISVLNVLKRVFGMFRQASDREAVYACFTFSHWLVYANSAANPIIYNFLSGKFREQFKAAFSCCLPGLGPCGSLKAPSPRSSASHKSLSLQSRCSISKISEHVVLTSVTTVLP

[19] = HEp-2 cell cytotoxicity, dose response, cytotoxicity control for RSV inhibitor project, HTS (AID 2410); format: functional; conditions: human respiratory syncytial virus
[20] = target: T7, Orexin/Hypocretin receptor type 1; experiment: Homogeneous Time Resolved Fluorescence (HTRF)-based cell-based high throughput dose response assay for antagonists of the orexin 1 receptor (OX1R; HCRTR1). [Related pubchem assays (depositor defined):AID434989, AID435008, AID463079, AID485270, AID492963, AID492964, AID492965, AID493232, AID504717, AID504718]; format: functional
[21] = Counterscreen for antagonists of the orexin 1 receptor (OX1R; HCRTR1): Fluorescence-based cell-based high throughput dose response assay to identify antagonists of the parental CHO cell line. [Related pubchem assays (depositor defined):AID434989, AID435008, AID463079, AID485270, AID492963, AID492964, AID492965, AID493232, AID504699, AID504701]; format: functional
[22] = Luminescence Cell-Based Dose Confirmation HTS to Identify Activators of 5'UTR Stem-Loop Driven Alpha-Synuclein mRNA Translation in H4 Neuroglioblastoma Cells. [Related pubchem assays: 1829 (Project Summary), 1814 (Primary HTS)]; format: functional
[23] = target: Sphingosine 1-phosphate receptor 4 (Homo sapiens, UniProt O95977); experiment: Late-stage fluorescence dose response cell-based assay to identify agonists of the Sphingosine 1-Phosphate Receptor 4 (S1P4): purchased compounds EC50. [Related pubchem assays (depositor defined):AID1509, AID1523, AID1563, AID1686, AID1701, AID1801]; format: functional
Sphingosine 1-phosphate receptor 4, sequence (O95977 whole entry): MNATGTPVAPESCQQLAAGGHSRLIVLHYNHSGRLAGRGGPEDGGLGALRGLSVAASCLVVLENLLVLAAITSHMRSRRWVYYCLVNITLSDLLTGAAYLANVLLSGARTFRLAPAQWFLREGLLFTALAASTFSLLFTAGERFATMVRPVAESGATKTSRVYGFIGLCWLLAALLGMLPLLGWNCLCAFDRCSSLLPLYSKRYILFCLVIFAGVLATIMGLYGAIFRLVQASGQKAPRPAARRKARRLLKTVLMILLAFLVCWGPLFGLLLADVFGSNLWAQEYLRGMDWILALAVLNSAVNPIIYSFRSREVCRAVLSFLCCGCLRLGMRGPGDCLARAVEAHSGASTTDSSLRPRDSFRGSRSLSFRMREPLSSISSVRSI

[24] = Luminescence Cell-Based Dose Response HTS to Identify Activators of Luciferase Translation or Activity in H4 […] Cells. [Related pubchem assays: 1829 (Project Summary), 1814 (Primary HTS)]; format: functional
[25] = target: T8, RNA-binding protein pos-1 (Caenorhabditis elegans, UniProt G5EF15); experiment: inhibitors of POS-1/mex-3 RNA binding, dose response, biochemical, fluorescence polarization (AID 1964);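 note: purified POS-1 fused to maltose binding protein made in E. coli; potency of compounds blocking POS-1 binding to fluorescent RNA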
T8 sequence (G5EF15 whole entry): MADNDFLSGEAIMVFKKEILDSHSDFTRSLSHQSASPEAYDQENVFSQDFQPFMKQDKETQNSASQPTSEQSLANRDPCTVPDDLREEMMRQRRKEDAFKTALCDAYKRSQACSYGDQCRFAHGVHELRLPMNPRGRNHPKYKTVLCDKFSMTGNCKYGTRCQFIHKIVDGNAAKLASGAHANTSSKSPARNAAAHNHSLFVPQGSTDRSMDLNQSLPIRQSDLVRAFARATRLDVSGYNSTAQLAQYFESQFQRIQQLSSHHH

[26] = target: T9, Zinc finger protein mex-5 (Caenorhabditis elegans, UniProt Q9XUB2); experiment: MEX-5/TCR-2 RNA interaction inhibitors, dose response, biochemical, C. elegans, fluorescence polarization (AID 1960)
T9 sequence (Q9XUB2 whole entry): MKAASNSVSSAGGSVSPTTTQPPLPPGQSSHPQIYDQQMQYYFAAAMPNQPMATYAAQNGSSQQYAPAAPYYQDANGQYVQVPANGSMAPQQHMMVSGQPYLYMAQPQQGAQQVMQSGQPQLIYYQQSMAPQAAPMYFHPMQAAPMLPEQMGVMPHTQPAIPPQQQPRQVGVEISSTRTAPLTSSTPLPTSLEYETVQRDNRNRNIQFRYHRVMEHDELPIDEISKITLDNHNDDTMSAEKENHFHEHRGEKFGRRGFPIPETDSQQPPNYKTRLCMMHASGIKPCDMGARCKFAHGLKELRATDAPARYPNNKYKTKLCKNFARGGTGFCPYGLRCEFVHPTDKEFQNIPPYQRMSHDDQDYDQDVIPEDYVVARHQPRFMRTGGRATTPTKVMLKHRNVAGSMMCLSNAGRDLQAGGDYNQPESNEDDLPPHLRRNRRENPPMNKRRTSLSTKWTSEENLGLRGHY

SUMO-activating enzyme [27] = target: T10, SUMO-activating enzyme (Homo sapiens, UniProt Q9UBT2); experiment: SUMOylation inhibitor hit validation, confirmation, SUMOylation inhibitor project, biochemical, AlphaScreen (AID 2018); format: functional
T10 sequence (Q9UBE0 whole entry): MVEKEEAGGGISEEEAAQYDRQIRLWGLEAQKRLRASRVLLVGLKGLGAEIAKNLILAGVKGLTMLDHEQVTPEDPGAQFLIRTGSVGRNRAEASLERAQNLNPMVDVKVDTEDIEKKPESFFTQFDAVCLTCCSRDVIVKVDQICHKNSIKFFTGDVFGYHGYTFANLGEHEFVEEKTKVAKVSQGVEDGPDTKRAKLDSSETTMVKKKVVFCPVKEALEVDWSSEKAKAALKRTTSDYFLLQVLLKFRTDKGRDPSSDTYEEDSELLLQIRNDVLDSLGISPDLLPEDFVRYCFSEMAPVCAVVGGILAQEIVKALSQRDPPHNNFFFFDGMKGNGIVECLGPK
T10 sequence (Q9UBT2 whole entry): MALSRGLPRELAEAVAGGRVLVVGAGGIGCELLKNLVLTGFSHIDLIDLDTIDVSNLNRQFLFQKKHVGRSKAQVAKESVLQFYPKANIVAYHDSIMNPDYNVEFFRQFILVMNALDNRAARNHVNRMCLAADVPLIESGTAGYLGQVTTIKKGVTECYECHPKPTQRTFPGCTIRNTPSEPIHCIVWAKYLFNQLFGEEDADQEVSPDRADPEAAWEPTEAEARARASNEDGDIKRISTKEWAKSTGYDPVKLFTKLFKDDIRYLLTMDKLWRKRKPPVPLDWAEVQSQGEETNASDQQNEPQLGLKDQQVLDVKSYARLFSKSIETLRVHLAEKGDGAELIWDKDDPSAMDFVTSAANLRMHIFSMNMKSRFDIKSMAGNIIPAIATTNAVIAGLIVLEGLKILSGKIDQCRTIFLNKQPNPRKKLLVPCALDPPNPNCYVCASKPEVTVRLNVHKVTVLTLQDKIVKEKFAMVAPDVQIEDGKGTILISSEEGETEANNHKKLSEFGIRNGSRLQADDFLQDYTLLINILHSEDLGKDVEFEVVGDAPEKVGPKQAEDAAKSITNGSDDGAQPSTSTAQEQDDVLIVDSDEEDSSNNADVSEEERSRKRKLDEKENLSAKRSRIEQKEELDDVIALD

SUMO-activating enzyme [28] = target: T10, SUMO-activating enzyme; experiment: inhibitors of in vitro SUMOylation cascade, primary screen, biochemical, HTRF, uHTS (AID 2006); format: protein-complex assay
[29] = target: T11, Tyrosine-protein phosphatase non-receptor type 7 (Homo sapiens, UniProt P35236); experiment: HePTP (PTPN7) phosphatase inhibitor potency, SAR follow-up, biochemical, set 2 (AID 449736); format: functional
T11 sequence (P35236 whole entry): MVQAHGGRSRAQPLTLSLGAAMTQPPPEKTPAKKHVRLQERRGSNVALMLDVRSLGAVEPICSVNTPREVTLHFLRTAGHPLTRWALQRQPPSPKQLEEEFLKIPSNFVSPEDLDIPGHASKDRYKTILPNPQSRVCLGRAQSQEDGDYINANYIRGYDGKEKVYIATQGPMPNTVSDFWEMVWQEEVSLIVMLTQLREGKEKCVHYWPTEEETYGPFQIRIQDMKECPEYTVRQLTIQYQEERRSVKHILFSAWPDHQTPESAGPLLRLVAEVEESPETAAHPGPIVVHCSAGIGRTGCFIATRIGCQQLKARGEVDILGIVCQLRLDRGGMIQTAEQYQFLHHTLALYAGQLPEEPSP

T1 sequence (P98170 whole entry): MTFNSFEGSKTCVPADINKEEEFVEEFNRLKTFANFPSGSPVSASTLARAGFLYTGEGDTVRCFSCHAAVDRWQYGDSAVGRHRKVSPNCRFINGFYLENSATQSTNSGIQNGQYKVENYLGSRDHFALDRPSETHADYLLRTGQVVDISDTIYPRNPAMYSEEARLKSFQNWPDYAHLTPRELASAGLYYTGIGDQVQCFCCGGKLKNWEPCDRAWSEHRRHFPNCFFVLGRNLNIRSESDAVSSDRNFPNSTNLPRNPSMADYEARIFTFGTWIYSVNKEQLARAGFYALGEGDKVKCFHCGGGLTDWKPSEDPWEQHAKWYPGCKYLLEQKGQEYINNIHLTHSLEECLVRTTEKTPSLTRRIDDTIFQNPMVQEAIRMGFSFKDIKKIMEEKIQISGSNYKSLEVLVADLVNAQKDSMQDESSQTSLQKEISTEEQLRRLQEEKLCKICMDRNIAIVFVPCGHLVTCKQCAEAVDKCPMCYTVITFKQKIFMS

CCOc1ccc2cc(C(=O)c3ccccc3)c(=O)oc2c1
IC50 [1]: > 100 µM (not active)
IC50 [2]: > 100 µM (inactive)

Cc1ccc(-c2csc(N3CCN(c4cc5c(cc4Cl)nc(-c4ccncc4)n5CCOCCO)CC3)n2)cc1
AC50 [3]: 231 µM (active)
AC50 (CAAX prenyl protease 2): 6.2 µM (active)

O=C(c1ccc(COc2ccccc2Br)o1)N1N=C(C(F)F)CC1(O)C(F)F (configuration not stated)
EC50 (Troponin, cardiac muscle): > 71.5 µM (inactive)

Cc1[nH]nc(-c2ccc(OCCN3CCOCC3)cc2O)c1-c1ccc(Cl)cc1
IC50 [4]: > 32 µM (inactive)
IC50 (Cannabinoid receptor 1 [5]): 2.11 µM (active)
EC50 (Cannabinoid receptor 1 [6]): > 32 µM (inactive)
EC50 (Cannabinoid receptor 2 [7]): > 32 µM (inactive)
IC50 [8]: 19.2 µM (inactive)
IC50 (Cannabinoid receptor 2 [9]): 29.1 µM (inactive)
EC50 [10]: > 32 µM (inactive)

COc1ccc(S(=O)(=O)N2CCOCC2)cc1NC(=O)c1ccc(Cl)cc1
EC50 (Cannabinoid receptor 2 [11]): > 32 µM (inactive)
IC50 (Cannabinoid receptor 2 [12]): > 32 µM (inactive)
EC50 [13]: > 32 µM (inactive)
EC50 (Cannabinoid receptor 1 [14]): 5.08 µM (active)
IC50 [15]: 12.3 µM (inactive)
IC50 (Cannabinoid receptor 1 [16]): > 32 µM (inactive)
EC50 [17]: 0.138 µM (active)

Cc1cc(C)nc(N=C(N)Nc2ccc(SC(F)F)cc2)n1
IC50 (CHO-K1): > 66.2 µM (inactive)
IC50 [18]: 14.7 µM (inactive)
CC50 [19]: 16.1 µM (active)
IC50 [20]: 57 µM (inactive)
IC50 [21]: 22.1 µM (inactive)

Cc1ccc(OCCOc2cccc(Br)c2)c([N+](=O)[O-])n1
EC50 [22]: 5.57 µM (active)
EC50 [23]: > 50 µM (inactive)
EC50 [24]: 27.6 µM (active)

CC(=O)c1ccc(-c2ccc(/C=C(/Sc3n[nH]c(C)n3)C(=O)O)o2)cc1
EC50 [25]: 21.6 µM (active)
EC50 [26]: 14.9 µM (active)
IC50 (SUMO-activating enzyme [27]): 4.2 µM (active)
IC50 (SUMO-activating enzyme [28]): 74.2 µM (active)

Cc1ccc(C)c(-n2c(N)c(C(=O)N3CCCCC3)sc2=S)c1
IC50 [29]: > 100 µM (inactive)
